A short description of data set [1]: tested for the peak time in mice following 6.9 mg/kg, oral (administered as the hydrochloride salt dissolved in H2O). It counts as ADME, organism-based. Also noted: dose 6.9 mg/kg, route oral. To be noted: mouse, in vivo, read-out: Peak time (converted).
Data set [2] is described as follows: Tested for the peak time in mice following 11.8 mg/kg, oral (administered as the sodium salt dissolved in H2O). It is filed as ADME, organism-based. Also noted: dose 11.8 mg/kg, route oral. To be noted: mouse, in vivo, read-out: Peak time (converted).
A further data set deals with Enterobacter cloacae. The experiment in a line: Tested for inhibition of visible growth of Enterobacter cloacae. It counts as functional.
In the next data set the test system is Klebsiella aerogenes. Put plainly: Tested for inhibition of visible growth of Enterobacter aerogenes. It counts as functional.
The subject of data set [3] is Escherichia coli. Put plainly: Tested for inhibition of visible growth of Escherichia coli. It is filed as functional.
Data set [4] has as its system Escherichia coli. The experiment in a line: Tested for the antimicrobial activity against Escherichia coli in mice perorally. It counts as functional. To be noted: po.
Data set [5] has as its system Escherichia coli. Put plainly: Tested for the antimicrobial activity against Escherichia coli in mice. It is filed as functional.
Data set [6] can be described thus: (§1) Tested for the antimicrobial activity against Salmonella schottmuelleri in mice. It is filed as functional.
Data set [7] can be described thus: as §1. It is filed as functional. This is another data set of the same source.
Data set [8] deals with Staphylococcus aureus. Put plainly: Tested for the antimicrobial activity against Staphylococcus aureus. It is filed as functional.
In data set [9] the test system is Streptococcus pneumoniae. The experiment in a line: (§2) Tested for the antimicrobial activity against Streptococcus pneumoniae in mice. It is filed as functional.
For data set [10], the system named is Streptococcus pneumoniae. Described as §2. It is filed as functional. This is another data set of the same source.
Data set [11] deals with Streptococcus pyogenes. The experiment in a line: (§3) Tested for the antimicrobial activity against Streptococcus pyogenes in mice. It is filed as functional.
Data set [12] has as its system Streptococcus pyogenes. The data set is described as §3. It is filed as functional. The source holds these as a separate data set.
In data set [13] the test system is Staphylococcus aureus. The experiment in a line: Tested for the antimicrobial activity against Staphylococcus aureus, benzyl-penicillin sensitive in mice, perorally. It counts as functional. To be noted: po.
The subject of the next data set is Proteus mirabilis. The experiment in a line: Tested for inhibition of visible growth of Proteus mirabilis. It is filed as functional.
Data set [14] is described as follows: Tested for inhibition of visible growth of Salmonella schottmuelleri. It counts as functional.
Data set [15] relates to Staphylococcus aureus. The experiment in a line: Tested for inhibition of visible growth of Staphylococcus aureus, benzyl-penicillin sensitive. It is filed as functional.
For data set [16], the system named is Streptococcus pyogenes. The experiment in a line: Tested for inhibition of visible growth of Streptococcus pyogenes. It is filed as functional.
For the next data set, the system named is Enterococcus faecalis. The experiment in a line: Tested for inhibition of visible growth of Streptococcus faecalis. It counts as functional.
Data set [17] relates to Streptococcus pneumoniae. Put plainly: Tested for inhibition of visible growth of Streptococcus pneumoniae. It is filed as functional.
For a further data set, the system named is Klebsiella pneumoniae. Put plainly: Tested for inhibition of visible growth of Klebsiella pneumoniae. It counts as functional.
In data set [18] the test system is Staphylococcus aureus. The experiment in a line: Tested for inhibition of visible growth of Staphylococcus aureus. It counts as functional.
Data set [19] concerns Mus musculus. The experiment in a line: Tested for the antimicrobial activity against Streptococcus pyogenes in mice, subcutaneously. It is filed as functional. To be noted: sc.
Data set [20] is filed under the species Mus musculus. The experiment in a line: Tested for the antimicrobial activity against Staphylococcus aureus, benzyl-penicillin resistant in mice, perorally. It counts as functional. To be noted: po.
For data set [21], the species on record is Mus musculus. Put plainly: Tested for the antimicrobial activity against Staphylococcus aureus (M202) in mice, perorally. It is filed as functional. To be noted: po.
In data set [22] the test system is Mus musculus. Put plainly: Tested for the antimicrobial activity against Staphylococcus aureus (M202) in mice, subcutaneously. To be noted: sc. It is filed as functional.
The species named for data set [23] is Mus musculus. The experiment in a line: Tested for the antimicrobial activity against Streptococcus pneumoniae (D137) in mice, perorally. It is filed as functional. To be noted: po.
Data set [24] deals with Mus musculus. Put plainly: Tested for the antimicrobial activity against Streptococcus pneumoniae (D137) in mice, subcutaneously. To be noted: sc. It counts as functional.
Data set [25] deals with Mus musculus. Put plainly: Tested for the antimicrobial activity against Streptococcus pneumoniae (D815) in mice, subcutaneously. It is filed as functional. To be noted: sc.
Data set [26] is filed under the species Mus musculus. The experiment in a line: Tested for the antimicrobial activity against Streptococcus pneumoniae (D815) in mice, perorally. It is filed as functional. To be noted: po.
For data set [27], the species on record is Mus musculus. Put plainly: Tested for the antimicrobial activity against Streptococcus pyogenes (ST139) in mice, perorally. It is filed as functional. To be noted: po.
For data set [28], the system named is Mus musculus. Put plainly: Tested for the antimicrobial activity against Streptococcus pyogenes (ST139) in mice, subcutaneously. It is filed as functional. To be noted: sc.
Data set [29] is filed under the species Mus musculus. The experiment in a line: Tested for the antimicrobial activity against Streptococcus pyogenes (St141) in mice, perorally. It counts as functional. To be noted: po.
Data set [30] concerns Mus musculus. Put plainly: Tested for the antimicrobial activity against Streptococcus pyogenes (St141) in mice, subcutaneously. It is filed as functional. To be noted: sc.
Data set [31] has as its system Mus musculus. Put plainly: Tested for the antimicrobial activity against Staphylococcus aureus (M240) in mice, subcutaneously. To be noted: sc. It is filed as functional.
A further data set deals with Pseudomonas aeruginosa. Put plainly: Tested for inhibition of visible growth of Pseudomonas aeruginosa. It counts as functional.
The species entered for data set [32] is Mus musculus. The experiment in a line: Tested for the antimicrobial activity against Staphylococcus aureus (M240) in mice, perorally. It counts as functional. To be noted: po.

Structures are written as SMILES. ≈ marks a conversion by molar mass, not a printed value. Some results are limits rather than exact numbers.

Consider `Cc1nnc(SCC2=C(C(=O)O)N3C(=O)C(NC(=O)[C@H](N)c4ccc5c(c4)OCO5)C3SC2)s1` (some centres not stated), for which the Tmax in [1] and in [2] was 30 min throughout. In addition, the MIC (as a rule, the lowest concentration that inhibits growth of the organism) in the data set with Enterobacter cloacae was 25 µg/mL (≈ 47.9 µM); against Klebsiella aerogenes, 25 µg/mL (≈ 47.9 µM); against Escherichia coli [3], 12.5 µg/mL (≈ 24 µM); against Proteus mirabilis, over 100 µg/mL; in [14], 1.6 µg/mL (≈ 3.07 µM); with Staphylococcus aureus [15], 0.2 µg/mL (≈ 0.383 µM). Also, the minimal inhibitory concentration (MIC) in the data set with Streptococcus pyogenes [16] was 0.1 µg/mL (≈ 0.192 µM); against Enterococcus faecalis, 50 µg/mL (≈ 95.9 µM); against Streptococcus pneumoniae [17], 0.1 µg/mL (≈ 0.192 µM); in the data set with Klebsiella pneumoniae it was 6.2 µg/mL (≈ 11.9 µM); against Staphylococcus aureus [18] it was 3.1 µg/mL (≈ 5.94 µM). The 50% effective dose (ED50) – broadly, the midpoint of the dose-response relation – in the data set on Escherichia coli [4] turned out to be 33.9 mg/kg; with Escherichia coli [5], 10.6 mg/kg; in data set [6] it was 40 mg/kg; in data set [7], 8 mg/kg; with Staphylococcus aureus [8] it was 0.29 mg/kg; in the data set with Streptococcus pneumoniae [9] it was 1.3 mg/kg. Moreover, the ED50 in the data set with Streptococcus pneumoniae [10] came to 0.79 mg/kg; with Streptococcus pyogenes [11] it was 0.84 mg/kg; with Streptococcus pyogenes [12] it was 0.23 mg/kg; in the data set with Staphylococcus aureus [13] it was 0.8 mg/kg.
On to `NC(C(=O)NC1C(=O)N2C(C(=O)O)=C(CSc3cn[nH]n3)CS[C@H]12)c1ccc2c(c1)CCO2` (some centres not stated), for which the minimum inhibitory concentration (MIC) in the data set with Enterobacter cloacae worked out at 50 µg/mL (≈ 102 µM); in the data set on Klebsiella aerogenes it was 25 µg/mL (≈ 51.2 µM); in the data set with Escherichia coli [3] it was 12.5 µg/mL (≈ 25.6 µM); against Proteus mirabilis it was 100 µg/mL (≈ 205 µM); in data set [14], 3.1 µg/mL (≈ 6.35 µM); in the data set with Staphylococcus aureus [15], 0.4 µg/mL (≈ 0.819 µM). Besides, the minimal inhibitory concentration (MIC) against Streptococcus pyogenes [16] worked out at 0.1 µg/mL (≈ 0.205 µM); with Enterococcus faecalis, 100 µg/mL (≈ 205 µM); with Streptococcus pneumoniae [17], 0.1 µg/mL (≈ 0.205 µM); against Klebsiella pneumoniae, 6.2 µg/mL (≈ 12.7 µM); against Staphylococcus aureus [18], 1.6 µg/mL (≈ 3.27 µM). The 50% effective dose (ED50) is 19 mg/kg with Escherichia coli [4]; 11 mg/kg in the data set with Escherichia coli [5]; over 40 mg/kg in data set [6]; 30 mg/kg in [7]; 0.27 mg/kg in the data set with Streptococcus pyogenes [11]; 0.19 mg/kg with Mus musculus [19].
As for `CC1=C(C(=O)O)N2C(=O)C(NC(=O)[C@H](N)c3ccc4c(c3)OCCO4)C2SC1` (some centres not stated), the minimal inhibitory concentration (MIC) in the data set with Enterobacter cloacae was over 100 µg/mL; in the data set with Klebsiella aerogenes, over 100 µg/mL; in the data set on Escherichia coli [3], over 100 µg/mL; in the data set on Proteus mirabilis it was over 100 µg/mL; in data set [14] it was 50 µg/mL (≈ 123 µM); in the data set with Staphylococcus aureus [15], 0.8 µg/mL (≈ 1.97 µM). Further, the MIC with Streptococcus pyogenes [16] is 0.4 µg/mL (≈ 0.987 µM); in the data set with Enterococcus faecalis, over 100 µg/mL; against Streptococcus pneumoniae [17] it was 0.8 µg/mL (≈ 1.97 µM); with Klebsiella pneumoniae, 100 µg/mL (≈ 247 µM); in the data set with Staphylococcus aureus [18] it was 3.1 µg/mL (≈ 7.65 µM). The 50% effective dose (ED50) in the data set with Staphylococcus aureus [8] amounted to 1.5 mg/kg; with Streptococcus pneumoniae [9] it was 15 mg/kg; in the data set with Streptococcus pneumoniae [10] it was 14 mg/kg; in the data set with Streptococcus pyogenes [11] it was 1 mg/kg; in the data set on Streptococcus pyogenes [12], 0.81 mg/kg; in the data set filed under Mus musculus [20], 8.3 mg/kg. Besides, the ED50 in the data set with Staphylococcus aureus [13] amounted to 0.5 mg/kg.
Take `CC1(C)S[C@@H]2[C@H](NC(=O)[C@H](N)c3ccc(O)cc3)C(=O)N2[C@H]1C(=O)O` [AMOXICILLIN]: the MIC is over 100 µg/mL in the data set on Enterobacter cloacae; over 100 µg/mL with Klebsiella aerogenes; 6.2 µg/mL (≈ 17 µM) against Escherichia coli [3]; over 100 µg/mL in the data set on Pseudomonas aeruginosa; 0.4 µg/mL (≈ 1.09 µM) in the data set with Proteus mirabilis; 0.4 µg/mL (≈ 1.09 µM) in [14]. Also, the MIC is 0.1 µg/mL (≈ 0.274 µM) against Staphylococcus aureus [15]; at most 0.03 µg/mL in the data set on Streptococcus pyogenes [16]; 1.6 µg/mL (≈ 4.38 µM) in the data set with Enterococcus faecalis; at most 0.03 µg/mL against Streptococcus pneumoniae [17]; 0.8 µg/mL (≈ 2.19 µM) in the data set with Klebsiella pneumoniae; 100 µg/mL (≈ 274 µM) against Staphylococcus aureus [18]. For the same compound, the 50% effective dose (ED50) in the data set filed under Mus musculus [21] was determined as 0.62 mg/kg; in the data set with Mus musculus [22], 0.62 mg/kg; in the data set listed under Mus musculus [23], 0.25 mg/kg; in the data set on Mus musculus [24] it was 0.14 mg/kg; in the data set with Mus musculus [25], 0.05 mg/kg; in the data set listed under Mus musculus [26], 0.13 mg/kg. The 50% effective dose (ED50) was determined as 0.073 mg/kg in the data set filed under Mus musculus [27]; 0.063 mg/kg in the data set with Mus musculus [28]; 0.08 mg/kg in the data set filed under Mus musculus [29]; 0.06 mg/kg in the data set on Mus musculus [30]; 0.074 mg/kg with Mus musculus [31]; 0.31 mg/kg in the data set filed under Mus musculus [32].

The values are drawn from ChEMBL document CHEMBL1121424, “Orally active cephalosporins and penicillins” (J Med Chem, 1980).
